Usually IC50 stands for the concentration that inhibits the measured activity by half.

T1 sequence (Q07817 whole entry, species assumed): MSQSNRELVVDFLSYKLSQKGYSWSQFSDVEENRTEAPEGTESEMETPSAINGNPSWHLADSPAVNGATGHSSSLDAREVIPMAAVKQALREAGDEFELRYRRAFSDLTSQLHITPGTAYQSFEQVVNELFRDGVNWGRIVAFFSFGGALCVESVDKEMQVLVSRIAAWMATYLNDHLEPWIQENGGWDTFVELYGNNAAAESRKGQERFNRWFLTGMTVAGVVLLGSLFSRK

The experiment addresses T1, Bcl-xL (Homo sapiens, UniProt Q07817).
T1 construct: made in house
Kind of experiment: Alpha Screen Bcl-xL binding assay, competition with Bim26-mer. The following applies: values listed in the order of Table 1; read-out: Alphascreen results (IC50). As for the experimental part: The measurement of competition of compounds of the invention with Bim26-mer for a Bcl-2 family protein binding site using an Alpha Screen Bcl-xL Binding Assay:
The BH3 proteins ALPHASCREEN™ assay was used to identify active small molecules Bcl-2 family protein screen. e.g., Bcl-xL, hmMcl-1 screen. To determine an accurate estimation of the IC50, the compounds were routinely tested at starting concentrations, 100 μM and/or 1 μM and serially titrated 3 fold over 11 dilutions.
The beads come in close proximity when the protein and the peptides interact. Donor beads contain a photosensitiser that converts oxygen to an excited form of O2 at an excitation of 680 nm. Energy is transformed from the singlet oxygen and reacts with chemiluminescers on the acceptor bead, resulting in light emission at 520-620 nm. […] With this information, the IC50 of each compound was calculated
GST-Bcl-xL, GST-hmMcl-1 and biotinylated GST proteins were prepared in-house and were stored as stock solutions at −80° C. The biotinylated-Bak, and biotinylated-Bim peptides were purchased from Auspep and were stored as 500 μM stock solutions in 100% DMSO at −80° C. The ALPHASCREEN™ GST (Glutathione-S-Transferase) Detection Kit was obtained from Perkin Elmer Lifesciences (Cat #6760603R). The Proxiplates, white 384 well flat-Bottom plates were purchased from Interpath Services, Melbourne (Cat #784075). The seals to cover the plates were purchased from Proscience. Melbourne (Cat#784075). DMSO was purchased from AnalaR. The 384 deep well plates and the Polypropylene 50 μL, V bottom polypropylene compound plates were purchased from Matrical.
Compounds of the invention were prepared as 10 mM stocks with 100% DMSO on the day prior to performing the assay. […] To achieve a final compound concentration of 1 μM, in a separate matrical plate, 28 μL of 100% DMSO and 2 μL of 10 mM compound was added to a well, mixed well. 2 μL of this solution was taken and added to 38 μL of 100% DMSO. 20 μL of this solution was added to the test matrical plate. Several control compounds were included in the test plates. For the control wells 15 μL 100% DMSO only was added to the appropriate wells of each plate. The compound plates were then serially diluted 2 fold using the MiniTrak. Once titrations were complete, the compound plate was immediately covered with a foil seal to prevent evaporation.
The assay and bead buffers were prepared fresh. Each titrated compound plate was assayed in duplicate. The following volumes were sufficient to run 12 Proxiplates (4 assay plates run in duplicate in each of Bclxl, hmMcl and counter assays)
Protein and Peptide Preparation; and Assay Performance • 1. The assay and bead buffers were used to prepare the acceptor and donor solutions. ALPHASCREEN™ beads are light sensitive and therefore prepared in a darkened room. 2.5 μL of beads were added per 1 mL of buffer. • 2. The volume of protein or peptide to add was calculated using the following formula:
[formula] • C1=Final Concentration of protein/peptide • C2=Stock Concentration of protein/peptide • V1=Total Volume of Acceptor/Donor Solution • V2=Volume of stock protein/Peptide to add to Acceptor/Donor solution • 3. The assay components were prepared as separate Acceptor and Donor Solutions. The Acceptor Solution contained Acceptor heads and target protein, while the Donor Solution contained Donor beads and biotinylated peptide.
• 4. After the solutions were prepared, they were left to incubate for 30 minutes at room temperature to allow the beads to bind to the protein and the peptide. • 5. 50 μL of Bcl-xL solution, 50 μL of hmMcl-1 solution and 50 µL of biotinylated-GST were added into separate deep wells on an assay plate. A control […]. Assay/Bead buffer was added separate well plates (no protein). • 6.
As for `O=C(O)c1nc(-c2ccc3c(c2)N(C(=O)Nc2nc4ccccc4s2)CCC3)ccc1OCCOc1ccccc1` [Example 19], the IC50 was 2 nM.

Take `O=C(O)c1nc(-c2ccc3c(c2)N(C(=O)Nc2nc4ccccc4s2)CCO3)sc1CCCSc1ccncc1` [Example 73, 2-(4-(benzo[d]thiazol-2-ylcarbamoyl)-3,4-dihydro-2H-benzo[b][1,4]oxazin-6-yl)-5-(3-(pyridin-4-ylthio)propyl)thiazole-4-carboxylic acid]: the IC50 was determined as 8 nM.

Consider `Nc1cccc(OCCCc2sc(-c3ccc4c(c3)N(C(=O)Nc3nc5ccccc5s3)CCC4)nc2C(=O)O)c1` [Example 82, 5-(3-(3-aminophenoxy)propyl)-2-(1-(benzo[d]thiazol-2-ylcarbamoyl)-1,2,3,4-tetrahydroquinolin-7-yl)thiazole-4-carboxylic acid], for which the IC50 was 0.7 nM.

Turning to `O=C(O)c1nc(-c2ccc3c(c2)N(C(=O)Nc2nc4ccccc4s2)CCC3)sc1CCCOc1ccccc1` [Example 78, 2-(1-(benzo[d]thiazol-2-ylcarbamoyl)-1,2,3,4-tetrahydroquinolin-7-yl)-5-(3-phenoxypropyl)thiazole-4-carboxylic acid], the IC50 was 0.6 nM.

Consider `CC(C)COc1ccc(-c2ccc3c(c2)N(C(=O)Nc2nc4ccccc4s2)CCC3)nc1C(=O)O` [Example 4], for which the IC50 was 1440 nM.

In the case of `Nc1cccc(OCc2cccc(-c3ccc(-c4ccc5c(c4)N(C(=O)Nc4nc6ccccc6s4)CCC5)nc3C(=O)O)c2)c1` [Example 41], the IC50 came to 5 nM.

Take `O=C(O)c1nc(-c2ccc3c(c2)N(C(=O)Nc2nc4ccccc4s2)CCO3)ccc1OCCCc1ccccc1` [Example 88, 6-(4-(benzo[d]thiazol-2-ylcarbamoyl)-3,4-dihydro-2H-benzo[b][1,4]oxazin-6-yl)-3-(3-phenylpropoxy)picolinic acid]: the IC50 was 65 nM.

Regarding `O=C(O)c1nc(-c2ccc3c(c2)N(C(=O)Nc2nc4ccccc4s2)CCC3)sc1Oc1ccc(F)cc1` [Example 65, 2-(1-(benzo[d]thiazol-2-ylcarbamoyl)-1,2,3,4-tetrahydroquinolin-7-yl)-5-(4-fluorophenoxy)thiazole-4-carboxylic acid], the concentration for half-maximal inhibition (IC50) was found to be 230 nM.

As for `COc1ccc(-c2sc(-c3ccc4c(c3)N(C(=O)Nc3nc5ccccc5s3)CCO4)nc2C(=O)O)cc1` [Example 66, 2-(4-(benzo[d]thiazol-2-ylcarbamoyl)-3,4-dihydro-2H-benzo[b][1,4]oxazin-6-yl)-5-(4-methoxyphenyl)thiazole-4-carboxylic acid], the IC50 was 110 nM.

Regarding `NC(=O)c1nc(-c2ccc3c(c2)N(C(=O)Nc2nc4ccccc4s2)CCC3)sc1Oc1ccc(F)cc1` [Example 70, 2-(1-(benzo[d]thiazol-2-ylcarbamoyl)-1,2,3,4-tetrahydroquinolin-7-yl)-5-{4-fluorophenoxy)thiazole-4-carboxamide], the IC50 amounted to 10000 nM.

On to `COc1cccc(-c2sc(-c3ccc4c(c3)N(C(=O)Nc3nc5ccccc5s3)CCO4)nc2C(=O)O)c1` [Example 67, 2-(4-(benzo[d]thiazol-2-ylcarbamoyl)-3,4-dihydro-2H-benzo[b][1,4]oxazin-6-yl)-5-(3-methoxyphenyl)thiazole-4-carboxylic acid], for which the IC50 came to 200 nM.

In the case of `CN1CCN(C(=O)Nc2nc3ccccc3s2)c2cc(-c3cccc(C(=O)O)n3)ccc21` [Example 3], the IC50 was 5390 nM.

Turning to `Cc1ccc(-c2sc(-c3ccc4c(c3)N(C(=O)Nc3nc5ccccc5s3)CCO4)nc2C(=O)O)cc1` [Example 64, 2-(4-(benzo[d]thiazol-2-ylcarbamoyl)-3,4-dihydro-2H-benzo[b][1,4]oxazin-6-yl)-5-p-tolylthiazole-4-carboxylic acid], the IC50 came to 310 nM.

Turning to `O=C(O)c1nc(-c2ccc3c(c2)N(C(=O)Nc2cc4ccccn4n2)CCO3)ccc1OCCCc1ccccc1` [Example 89, 3-(3-phenylpropoxy)-6-(4-(pyrazolo[1,5-a]pyridin-2-ylcarbamoyl)-3,4-dihydro-2H-benzo[b][1,4]oxazin-6-yl)picolinic acid], the 50% inhibitory concentration (IC50) was 235 nM.
